Test results: patent US9504676B2, “Molecules inhibiting a metabolic pathway involving the Syk protein tyrosine kinase and method for identifying said molecules” (CENTRE NATIONAL DE LA RECHERCHE SCIENTIFIQUE, priority 2008, dated 2016)

How the values were obtained:
Syk protein = target: T1, Syk protein (UniProt P48025); assay: In vitro affinity for Syk by fluorescence spectroscopy (spectrofluorometry); assay type: binding; details: read-out: Kd: dissociation constant with respect to Syk
T1 construct: none given for this test; fused on or other part: probably GST at the N-terminus (GST:Syk 6-242), if the ADA protein was also used here
Method: The dissociation constant of the molecules according to the invention with respect to Syk protein may particularly be measured in vitro by means of fluorescence spectroscopy (or spectrofluorometry).
Finally, the in vitro affinity of the molecule C-13 and some of the 87 molecules mentioned above for Syk protein was measured by means of fluorescence spectroscopy (or spectrofluorometry) and is expressed by the dissociation constant (or Kd) in μmole/liter (μM).

[1] = target: T2, murine Syk tyrosine kinase protein (GST:Syk 6-242) (Mus musculus, UniProt P48025); assay: ADA method: displacement of the binding of scFv G4G11 with Syk (ELISA); details: for inhibition at 10 µM: small molecules at 10 μM, scFv G4G11 100 nM, read-out: In vit. inhib.: mean inhibition % of the binding of scFv G4G11 with Syk in the ADA method
T2 construct: made in house
Procedure, shortened: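 GST:Syk 6-242 (murine) was immobilised at 10 μg ml^−1 and pre-incubated 1 h at ambient temperature with compounds at 10 μM final in PBS. scFv G4G11 was then added at 100 nM for 1 h. Bound scFv was detected via its C-terminal c-myc tag with HRP-9E10, and % inhibition was taken from signals with versus without compound.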

Structure (SMILES) | Kd (Syk protein) | inhibition at 10 µM [1] | IC50 ([1]; ADA method, read-out: estimated IC50 for competing with the binding of scFv G4G11 with Syk)
O=C(NCc1nnc(NCc2nc3ccccc3c(=O)[nH]2)n1-c1ccccc1)c1ccccc1F [Molecule 29] | 6.7 µM | 53.5% | –
COc1cccc(C2C(C(=O)c3ccc(C)cc3)=C(O)C(=O)N2CCCN2CCOCC2)c1 (centres unmarked) [Molecule 4, 3-hydroxy-5-(3-methoxyphenyl)-4-(4-methylbenzoyl)-1-[3-(4-morpholinyl)propyl]-1,5-dihydro-2H-pyrrol-2-one] | 9.4 µM | 79.5% | –
COc1ccc(C)cc1NC(=O)c1ccc(CN2CCC(Cc3ccccc3)CC2)cc1 [Molecule 17, 4-[(4-benzyl-1-piperidinyl)methyl}-N-(2-methoxy-5-methylphenyl)benzamide] | 17.9 µM | 63% | –
CCOc1ccc(NC(=O)CC2C(=O)N(c3ccc(OC)cc3)C(=S)N2CCN2CCOCC2)cc1 (centres unmarked) [Molecule 84, N-(4-ethoxyphenyl)-2-{1-(4-methoxyphenyl)-3-[2-(4-morpholinyl)ethyl]-5-oxo-2-thioxo-4-imidazolidinyl}acetamide] | 15.6 µM | 19% | –
COc1ccc(C2C(C(=O)c3cccs3)=C(O)C(=O)N2CCCn2ccnc2)c(OC)c1 (centres unmarked) [Molecule 2] | 16.3 µM | 81% | –
CCOC(=O)c1ccc(NC(=O)CC2C(=O)N(c3ccc(Cl)cc3)C(=S)N2Cc2cccnc2)cc1 (centres unmarked) [Molecule 61] | 21.8 µM | 39.5% | –
C=CCn1c(SCC(=O)Nc2cccc(OC)c2)nnc1C(C)NC(=O)c1ccccc1 (centres unmarked) [Molecule 66, N-{1-[4-allyl-5-({2-[(3-methoxyphenyl)amino]-2-oxoethyl}thio)-4H-1,2,4-triazol-3-yl]ethyl} benzamide] | 8 µM | 35% | –
COC(=O)c1ccccc1-c1ccc(/C=C2/SC(=S)N(Cc3ccccc3)C2=O)o1 [Molecule C-13, methyl 2-{5-[(3-benzyl-4-oxo-2-thioxo-1,3-thiazolidin-5-ylidene)methyl]-2-furyl}benzoate] | 4.8 ± 0.2 µM | 81% | ~4 µM
COc1cc(-c2nnc(SCC(=O)Nc3ccc(Cl)cc3)n2CCc2ccccc2)cc(OC)c1OC [Molecule 59] | 8.2 µM | 40% | –

Now from value to molecule, other results behind:

Kd (Syk protein) | inhibition at 10 µM [1] | Structure (SMILES) | IC50 ([1]; ADA method, read-out: estimated IC50 for competing with the binding of scFv G4G11 with Syk)
1.6 µM | 43% | CCOC(=O)c1ccc(NC(=O)CSc2nnc(-c3ccco3)c(-c3ccco3)n2)cc1 [Molecule 54, ethyl 4-({[(5,6-di-2-furyl-1,2,4-triazin-3-yl)thio]acetyl}amino)benzoate] | –
3.2 µM | 20% | CCn1c(CCC(=O)c2ccc(Cl)cc2)nnc1SCC(=O)Nc1ccc(Br)c(C)c1C [Molecule 82] | –
6.1 µM | 73.5% | CCOC(=O)c1ccc(N2C(=O)C(O)=C(C(=O)c3ccccc3)C2c2ccc(ON)cc2OC)cc1 (centres unmarked) [Molecule 6] | –
5.5 µM | 46.5% | Cc1cc(C(=O)Nc2ccccc2C(=O)O)ccc1NC(=O)COc1ccc(C(C)C)cc1 [Molecule 49, 2-[(4-{[(4-isopropylphenoxy)acetyl]amino}-3-methylbenzoyl)amino] benzoic acid] | –
3 µM | 48% | O=C(Nc1ccccc1)c1ccc(NCCN2CCOCC2)c(S(=O)(=O)N2CCOCC2)c1 [Molecule 46, 4-{[2-(4-morpholinyl)ethyl]amino}-3-(4-morpholinylsulphonyl)-N-phenylbenzamide] | –
5 µM | 86.5% | O=C(C1=C(O)C(=O)N(Cc2cccnc2)C1c1cccc(Oc2ccccc2)c1)c1ccc(Cl)cc1 (centres unmarked) [Molecule 1, 4-(4-chlorobenzoyl)-3-hydroxy-5-(3-phenoxyphenyl)-1-(3-pyridinylmethyl)-1,5-dihydro-2H-pyrrol-2-one] | –
5.6 µM | 67.5% | COc1ccccc1C(=O)Nc1ccc(-c2nnc(SCC(=O)c3ccccc3)n2C)cc1 [Molecule 15, 2-methoxy-N-(4-(4-methyl-5-[(2-oxo-2-phenylethyl)thio]-4H-1,2,4-triazol-3-yl)phenyl)benzamide] | –
4.8 µM | 27% | C=CCn1c(CNC(=O)c2cccc(C)c2)cnc1SCC(=O)Nc1cccc(C(=O)OC(C)C)c1 [Molecule 75] | –
6.3 µM | 71% | CCOC(=O)c1sc(N2C(=O)C(O)=C(C(=O)c3ccc(F)cc3)C2c2ccc(C)cc2)nc1C (centres unmarked) [Molecule 10, ethyl 2-[3-(4-fluorobenzoyl)-4-hydroxy-2-(4-methylphenyl)-5-oxo-2,5-dihydro-1H-pyrrol-1-yl]-4-methyl-1,3-thiazole-5-carboxylate] | –
6.2 µM | 81% | CCOC(=O)C1=C(C)NC2=C(C(=O)c3ccccc32)C1c1cc(Br)ccc1OCC(=O)O (centres unmarked) [Molecule 3, {4-bromo-2-[3-(ethoxy carbonyl)-2-methyl-5-oxo-4,5-dihydro-1H-indeno[1,2-b]pyridin-4-yl]phenoxy} acetic acid] | –
0.8 µM | 63% | COc1ccc(S(=O)(=O)N(CCc2ccccc2)CC(=O)Nc2ccc(C(N)=O)cc2)cc1 [Molecule 18] | –
